The text below walks through data of paper PMC9967085, “Properly Substituted Benzimidazoles as a New Promising Class of Nicotinate Phosphoribosyltransferase (NAPRT) Modulators” (Pharmaceuticals, 2023).

One assay addresses T1, Human recombinant NAPRT (Homo sapiens, UniProt Q6XQN6).
T1 construct: made in house
T1 sequence (Q6XQN6 1-538): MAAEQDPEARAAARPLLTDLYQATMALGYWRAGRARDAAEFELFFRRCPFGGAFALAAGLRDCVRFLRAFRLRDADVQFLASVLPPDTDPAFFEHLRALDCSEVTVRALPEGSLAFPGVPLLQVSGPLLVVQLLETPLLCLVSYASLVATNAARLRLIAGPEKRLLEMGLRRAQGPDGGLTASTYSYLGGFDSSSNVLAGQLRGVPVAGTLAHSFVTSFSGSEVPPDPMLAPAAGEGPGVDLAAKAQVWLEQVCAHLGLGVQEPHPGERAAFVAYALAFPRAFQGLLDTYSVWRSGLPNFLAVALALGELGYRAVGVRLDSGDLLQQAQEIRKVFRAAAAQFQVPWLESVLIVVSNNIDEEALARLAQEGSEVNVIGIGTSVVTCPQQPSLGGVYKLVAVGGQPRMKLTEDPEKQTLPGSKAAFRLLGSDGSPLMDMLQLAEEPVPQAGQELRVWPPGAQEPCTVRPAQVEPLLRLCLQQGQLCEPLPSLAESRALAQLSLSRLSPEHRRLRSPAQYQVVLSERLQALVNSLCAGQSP
The experiment in a line: HPLC-based NAPRT activity screening assay. The format is biochemical.

Assay [1] concerns the target NAPRT. Further details: method as in PMID 4333776. The conditions noted are these: cited from earlier work.
Assay [2] addresses NAPRT. Set-up: method as in PMID 35890147. To be noted: cited from earlier work.
Assay [3] deals with NAPRT. Set-up: method as in PMID 4255930. The conditions noted are these: cited from earlier work.
Assay [4] concerns NAPRT. Set-up: method as in PMID 35890155. The conditions noted are these: cited from earlier work.
Setting [5] is: 1 mM compound, 0.2 mM NA, 0.4 mM PRPP.
The mark [6] stands for this setting: 1 mM compound, 0.2 mM NA, 0.4 mM PRPP, read-out: % Inhibition (not active class).
Where [7] appears, read: 1 mM compound, 0.2 mM NA, 0.4 mM PRPP, read-out: % Inhibition.

Like-named read-outs stand apart in the source and are kept apart here.

As for `Cc1nc2cc(NCc3cccc(N)c3)ccc2n1C` [Compound 20, N-(3-aminobenzyl)-1,2-dimethyl-1H-benzo[d]imidazol-5-amine], the “Effect on NAPRT catalytic activity (in words)” value (“Effect” below) on Human recombinant NAPRT is on record as “NAPRT activators”. For the same compound, the “-Fold Stimulation” value on Human recombinant NAPRT (setting [5]) is recorded as 1.25 ± 0.05 fold. The inhibition (as a rule, the relative decrease from the control value, in per cent) at 1000 µM on Human recombinant NAPRT (setting [6]) was below 10%.

In the case of `CCCCC1C(=O)N(c2ccccc2)N(c2ccccc2)C1=O` [Compound 4, phenylbutazone], the Ki (usually a dissociation constant, usually derived from enzyme kinetics or from competition with a known ligand) at NAPRT [1] was 160 µM.

As for `O=C(O)c1ccccc1Nc1cccc(C(F)(F)F)c1` [Compound 5, flufenamic acid], the inhibition constant (Ki) on NAPRT [1] is 46 µM.

For `Cc1cccc(Nc2ccccc2C(=O)O)c1C` [Compound 6, mefenamic acid], at NAPRT [1], the Ki is 76 µM.

For `Cc1nc2cc(N(C)Cc3cccc(N)c3)ccc2n1C` [Compound 24, N-(3-aminobenzyl)-N,1,2-trimethyl-1H-benzo[d]imidazol-5-amine], the “Effect” value on Human recombinant NAPRT was “NAPRT activators”. For the same compound, the “-Fold Stimulation” value at Human recombinant NAPRT (setting [5]) was 1.44 ± 0.04 fold. Besides, the inhibition at 1000 µM at Human recombinant NAPRT (setting [6]) was below 10%.

In the case of `O=C(O)c1cnsn1` [Compound 16], at NAPRT [2], the Ki was 295 µM.

As for `O=C(O)c1cccnc1F` [Compound 2], the inhibition constant (Ki) at NAPRT [3] is 280 µM.

With `CC(=O)Nc1cccc(CN(C)c2ccc3c(c2)nc(C)n3C)c1` [Compound 22, N-(3-(((1,2-dimethyl-1H-benzo[d]imidazol-5-yl)(methyl)amino)methyl)phenyl) acetamide], the “-Fold Stimulation (not active class)” value at Human recombinant NAPRT (setting [5]) is given as “- (Not active, it is referred to compounds showing less than 10% inhibition or less than 1.10-fold stimulation)”. Also, the inhibition at 1000 µM was 5 ± 1.2% at Human recombinant NAPRT (setting [7]) and below 10% at Human recombinant NAPRT (setting [6]).

With `Cc1nc2cc(N(C)Cc3ccc(CN)cc3)ccc2n1C` [Compound 31, N-(4-(aminomethyl)benzyl)-N,1,2-trimethyl-1H-benzo[d]imidazol-5-amine], on Human recombinant NAPRT, the “Effect” value is recorded as “NAPRT activators”. The “-Fold Stimulation” value on Human recombinant NAPRT (setting [5]) is 1.58 ± 0.07 fold. The inhibition at 1000 µM on Human recombinant NAPRT (setting [6]) is below 10%.

`CC(=O)NCc1ccc(CN(C)c2ccc3c(c2)nc(C)n3C)cc1` [Compound 29, N-(4-(((1,2-dimethyl-1H-benzo[d]imidazol-5-yl)(methyl)amino)methyl)benzyl) acetamide]: the “Effect” value on Human recombinant NAPRT is recorded as “inhibit NAPRT activity”. Moreover, the “-Fold Stimulation (not active class)” value at Human recombinant NAPRT (setting [5]) was “- (Not active, it is referred to compounds showing less than 10% inhibition or less than 1.10-fold stimulation)”. In addition, the inhibition at 1000 µM at Human recombinant NAPRT (setting [7]) was determined as 12 ± 2.2%.

For “N-(3-(((1,2-dimethyl-1H-benzo[d]imidazol-5-yl)(methyl)amino)methyl)benzyl) acetamide [Compound 33]”, on Human recombinant NAPRT (setting [5]), the “% Inhibition (not active class)” value is “- (Not active, it is referred to compounds showing less than 10% inhibition or less than 1.10-fold stimulation)”; the “-Fold Stimulation” value turned out to be 1.08 ± 0.03 fold; the “-Fold Stimulation (not active class)” value is reported as “- (Not active, it is referred to compounds showing less than 10% inhibition or less than 1.10-fold stimulation)”.

`CC(=O)NCc1cccc(CNc2ccc3c(c2)nc(C)n3C)c1` [Compound 17, N-(3-(((1,2-dimethyl-1H-benzo[d]imidazol-5-yl)amino)methyl)benzyl)acetamide]: at Human recombinant NAPRT (setting [5]), the % Inhibition (in general, the relative decrease from the control value, in per cent) is given as 30.3 ± 6.0% and the “-Fold Stimulation (not active class)” value is reported as “-^b (Not active, it is referred to compounds showing less than 10% inhibition or less than 1.10-fold stimulation)”. Also, the inhibition at 1000 µM on Human recombinant NAPRT (setting [7]) was 30%.

In the case of `CC(=O)NCc1ccc(CNc2ccc3c(c2)nc(C)n3C)cc1` [Compound 25, N-(4-(((1,2-dimethyl-1H-benzo[d]imidazol-5-yl)amino)methyl)benzyl)acetamide], the “Effect” value at Human recombinant NAPRT is given as “inhibit NAPRT activity”. Also, the “-Fold Stimulation (not active class)” value at Human recombinant NAPRT (setting [5]) is on record as “- (Not active, it is referred to compounds showing less than 10% inhibition or less than 1.10-fold stimulation)”. For the same compound, the inhibition at 1000 µM at Human recombinant NAPRT (setting [7]) turned out to be 13 ± 3.1%.

Turning to `CC(=O)NCc1cccc(CN(C)c2ccc3c(c2)nc(C)n3C)c1` [Compound 21, N-(3-(((1,2-dimethyl-1H-benzo[d]imidazol-5-yl)(methyl)amino)methyl)benzyl) acetamide], on Human recombinant NAPRT (setting [5]), the “-Fold Stimulation” value was found to be 0 fold and the “-Fold Stimulation (not active class)” value is recorded as “- (Not active, it is referred to compounds showing less than 10% inhibition or less than 1.10-fold stimulation)”. Also, the inhibition at 1000 µM on Human recombinant NAPRT (setting [7]) is 0%. Also, the inhibition at 1000 µM at Human recombinant NAPRT (setting [6]) was below 10%.

Regarding `CC(=O)Nc1ccc(CN(C)c2ccc3c(c2)nc(C)n3C)cc1` [Compound 30, N-(4-(((1,2-dimethyl-1H-benzo[d]imidazol-5-yl)(methyl)amino)methyl)phenyl) acetamide], at Human recombinant NAPRT (setting [5]), the “-Fold Stimulation” value was determined as 0 fold and the “-Fold Stimulation (not active class)” value is listed as “- (Not active, it is referred to compounds showing less than 10% inhibition or less than 1.10-fold stimulation)”. The inhibition at 1000 µM at Human recombinant NAPRT (setting [7]) is 0%. Besides, the inhibition at 1000 µM on Human recombinant NAPRT (setting [6]) was below 10%.

As to `O=C(O)c1cnccc1O` [Compound 15], the inhibition constant (Ki) on NAPRT [2] is 308 µM.

With `NCc1cc2c(cc1Cl)OCO2` [Compound 10], the IC50 (in general, the concentration that inhibits the measured activity by half) in the assay on NAPRT [4] was 160 µM.

`Cc1nc2cc(NCc3ccc(N)cc3)ccc2n1C` [Compound 28, N-(4-aminobenzyl)-1,2-dimethyl-1H-benzo[d]imidazol-5-amine]: on Human recombinant NAPRT (setting [5]), the “-Fold Stimulation” value stood at 0 fold and the “-Fold Stimulation (not active class)” value was “- (Not active, it is referred to compounds showing less than 10% inhibition or less than 1.10-fold stimulation)”. Moreover, at Human recombinant NAPRT (setting [7]), the inhibition at 1000 µM is 0%. In addition, on Human recombinant NAPRT (setting [6]), the inhibition at 1000 µM was below 10%.

As to `Cc1nc2cc(NCc3ccc(CN)cc3)ccc2n1C` [Compound 27, N-(4-(aminomethyl)benzyl)-1,2-dimethyl-1H-benzo[d]imidazol-5-amine], the “-Fold Stimulation (not active class)” value on Human recombinant NAPRT (setting [5]) is “- (Not active, it is referred to compounds showing less than 10% inhibition or less than 1.10-fold stimulation)”. Besides, the inhibition at 1000 µM on Human recombinant NAPRT (setting [7]) is 1.9 ± 0.9%; at Human recombinant NAPRT (setting [6]), below 10%.

`CC(C)(C)C(=O)OCCCn1cc(CCCN2C[C@@H](O)[C@@H](O)[C@@H]2Cn2cc(-c3ccccc3)nn2)nn1` [Compound 9]: in the assay with NAPRT [4], the 50% inhibitory concentration (IC50) is 242 µM.

Consider `CC(C)(C)C(=O)OCCCn1cc(CCCN2C[C@@H](O)[C@@H](O)[C@@H]2NC(=O)c2ccccc2)nn1` [Compound 8], for which, in the assay on NAPRT [4], the IC50 was 327 µM.

Take `CC(Oc1ccccc1Cl)C(=O)Nc1cccc(C(=O)O)c1` (stereo not drawn) [Compound 12]: the concentration for half-maximal inhibition (IC50) in the assay on NAPRT [4] is 265 µM.

For `Cc1nc2cc(NCc3cccc(CN)c3)ccc2n1C` [Compound 19, N-(3-(aminomethyl)benzyl)-1,2-dimethyl-1H-benzo[d]imidazol-5-amine], the “Effect” value on Human recombinant NAPRT was “inactive”. On Human recombinant NAPRT (setting [5]), the “-Fold Stimulation (not active class)” value is “- (Not active, it is referred to compounds showing less than 10% inhibition or less than 1.10-fold stimulation)”. Also, the inhibition at 1000 µM at Human recombinant NAPRT (setting [7]) is 0.6 ± 0.9%; at Human recombinant NAPRT (setting [6]), below 10%.

For `Cc1nc2cc(N(C)Cc3cccc(CN)c3)ccc2n1C` [Compound 23, N-(3-(aminomethyl)benzyl)-N,1,2-trimethyl-1H-benzo[d]imidazol-5-amine], the “Effect” value at Human recombinant NAPRT is reported as “NAPRT activators”. Further, the “-Fold Stimulation” value on Human recombinant NAPRT (setting [5]) was 1.14 ± 0.05 fold. Also, the inhibition at 1000 µM at Human recombinant NAPRT (setting [6]) is below 10%.

On to `O=C(N[C@@H](C(=O)c1ccccc1)n1cnccc1=O)c1ccccc1` [Compound 13], for which the inhibitory constant (Ki) at NAPRT [2] was 2300 µM.

Take `O=C(O)c1ccccc1O` [Compound 7, salicylic acid]: the inhibition constant (Ki) on NAPRT [1] is 160 µM.

In the case of `O=C(Cn1c(=O)sc2ccccc21)Nc1cccc(C(=O)O)c1` [Compound 11], the IC50 in the assay on NAPRT [4] was 232 µM.

As for `O=C(NC(Sc1ccncn1)C(=O)c1ccccc1)c1ccccc1` (stereo not drawn) [Compound 14], the inhibition constant Ki at NAPRT [2] is 89 µM.

Consider `CC(=O)Nc1ccc(CNc2ccc3c(c2)nc(C)n3C)cc1` [Compound 26, N-(4-(((1,2-dimethyl-1H-benzo[d]imidazol-5-yl)amino)methyl)phenyl)acetamide], for which the “-Fold Stimulation (not active class)” value on Human recombinant NAPRT (setting [5]) is “- (Not active, it is referred to compounds showing less than 10% inhibition or less than 1.10-fold stimulation)”. Besides, the inhibition at 1000 µM at Human recombinant NAPRT (setting [7]) was 1.3%; at Human recombinant NAPRT (setting [6]), below 10%.

For the compound “N-(3-(((1,2-dimethyl-1H-benzo[d]imidazol-5-yl)amino)methyl)benzyl)acetamide [Compound 32]”, at Human recombinant NAPRT, the “Effect” value is on record as “NAPRT activators”. Besides, on Human recombinant NAPRT (setting [5]), the “% Inhibition (not active class)” value was “- (Not active, it is referred to compounds showing less than 10% inhibition or less than 1.10-fold stimulation)” and the “-Fold Stimulation” value is 1.47 ± 0.07 fold.
